From paper PMC12163684, “Gunacins: Novel Benzo[g]chromene Derivatives from the Fungus Exobasidium sp. and Their Potent Anti-Leishmania and Trypanosoma Activities” (ACS Omega, 2025)
Values after ≈ are worked out from the molar mass of the structure shown.

Assays:
[1] = tested on: L. mexicana (MNYC/BZ/1962/M379) amastigote; experiment: Anti-Leishmania activity, AB assay, axenic amastigotes; type: cell-based
Procedure: (§1) Promastigote stages of L. mexicana (MNYC/BZ/1962/M379), a generous gift from Vyacheslav Yurchenko, were cultured in M199 medium pH 7.4 supplemented with 2 μg/mL biopterin, 2 μg/mL hemin, 25 mM HEPES, 100 U/mL penicillin/streptomycin, and 10% heat-inactivated FBS (BioSera) pH 7.4 at 25 °C. The amastigotes were differentiated in vitro from late log/stationary promastigote cultures and cultivated in Schneider’s Drosophila Medium (SIM) at pH 5.5, supplemented with 1.5 μg/mL hemin, 100 U/mL penicillin/streptomycin, and 20% heat-inactivated FBS (BioSera) at pH 5.5, at 32 °C, and 5% CO2. Following a three-day period, the promastigotes underwent a transformation into amastigotes, which were then maintained in SIM.
(§2) To estimate the EC50, the AB assay, as previously described, was employed. The results are expressed as EC50, representing the dose of the compound required to inhibit cellular growth by 50%. Each EC50 value is the mean ± the standard error of the mean derived from at least three separate experiments, each performed in duplicate.

[2] = tested on: T. b. brucei 427; experiment: Anti-trypanosomal activity, resazurin (AB assay), bloodstream form; type: cell-based; details: Trypanosoma brucei, 72 h, axenic, 48 h + 24 h resazurin
Procedure: (§3) The bloodstream forms of T. b. gambiense LiTat 1.3, T. b. brucei 427, and T. b. evansi AnTat 3/3 were grown in HMI-11 medium pH 7.3 supplemented with 36 mM sodium bicarbonate, 100 U/mL penicillin/streptomycin, and 10% fetal bovine serum at 37 °C and 5% CO2. The bloodstream form of Trypanosoma congolense IL3000 (generous gift from Liam Morrison) was cultured in TcBSF-1 medium pH 7.3 supplemented with 26 mM sodium bicarbonate, 25 mM HEPES, 5.5 mM glucose, 1 mM sodium pyruvate, 0.04 mM adenosine, 0.1 mM hypoxanthine, 0.02 mM thymidine, 0.02 mM bathocuproine, 2 mM L-glutamine, 0.2 mM 2-mercaptoethanol, 100 U/ml penicillin/streptomycin, and 20% goat serum New Zealand origin (Gibco) at 34 °C, 5% CO2. The assay for anti-trypanosomal activity was performed using the resazurin sodium salt dye (AB Assay) according to the published protocol in a 96-well plate format. Parasites at a number of 5 × 10^3 per well (T. b. brucei and T. b. gambiense) or 1 × 10^4 per well (T. b. evansi) were incubated with different drug concentrations (2-fold serial dilutions) in a volume of 200 μL of the medium. Medium with 1% DMSO (the highest concentration of the solvent used in the assay) was used to confirm no effect of the solvent on the cell growth. The plates were incubated for 48 h at the appropriate temperature. Then, 20 μL of resazurin sodium salt solution (0.125 mg/mL in 1× PBS, pH 7. 4) was added to each well, and the cells were incubated for another 24 h under the same conditions. The fluorescence signal was quantified using a Tecan Infinite M200 plate reader at excitation and emission wavelengths of 560 and 590 nm, respectively. The EC50 values were calculated using GraphPad Prism 9.5.1 by nonlinear regression with a variable slope. Each EC50 value is the mean ± standard error of the mean of three separate experiments performed in duplicate.

[3] = tested on: Trypanosoma congolense IL3000; experiment: as above; type: cell-based; details: 72 h, axenic, 48 h + 24 h resazurin, read-out: EC50 T. congolense
Procedure: as §3

[4] = tested on: T. b. gambiense LiTat 1.3; experiment: as above; type: cell-based, T. brucei gambiense; details: Trypanosoma brucei, 72 h, axenic, 48 h + 24 h resazurin
Procedure: as §3

[5] = tested on: C. albicans CCM 8215; experiment: Minimum inhibitory concentration (MIC) testing, serial binary dilution in 96-well plates; type: cell-based; details: Candida albicans, CCM8215; 24 h in the dark; n.d. = activity not detected; highest tested concentration 66.7 μM
Procedure: (§4) Minimum inhibitory concentration (MIC) testing of the extracts was performed using 96-well polypropylene plates against four different microorganisms: the Gram-positive bacterium K. rhizophila ATCC 9341, the Gram-negative bacterium E. coli ATCC 3988, and the yeasts C. albicans CCM 8215 and C. neoformans CCF 1081.
(§5) A working inoculum of each microorganism was prepared as follows: for E. coli and K. rhizophila, the inoculum was grown in LB medium (LB Broth, 25 g/L, incubated at 36 °C); for C. albicans and C. neoformans, YM6.3 medium (maltose extract 10 g, glucose 4 g, yeast extract 4 g per 1 L distilled water, incubated at 24 °C) with a cell concentration of approximately 5 × 10^5 cells/mL for all microorganisms was used.
(§6) Chloramphenicol served as a positive control for bacteria, while cycloheximide was used as a positive control for fungi. The gradient of the test substances was established by serial binary dilution across the wells. The MIC was determined by identifying the lowest concentration at which no live microorganisms were present. Cultivation was performed in the dark for 24 h.

[6] = tested on: E. coli ATCC 3988; experiment: as above; type: cell-based; details: Escherichia coli, ATCC3988; 24 h in the dark; lowest concentration with no live microorganisms
Procedure: as §4, §5, §6

[7] = tested on: L. mexicana (MNYC/BZ/1962/M379) promastigote; experiment: Anti-Leishmania activity, AB assay, axenic promastigotes; type: cell-based
Procedure: as §1, §2

| SMILES | EC50 [1] | EC50 [2] | EC50 [3] | EC50 [4] | MIC [5] | MIC [6] | EC50 [7] |
| --- | --- | --- | --- | --- | --- | --- | --- |
| COc1cc(O)c2c(c1)C(=O)C1=C(C2=O)[C@H](O)[C@@H](O)[C@@H](C)O1 (relative stereo) [Compound 3, (2R,3R,4S)-3,4,6-trihydroxy-8-methoxy-2-methyl-3,4-dihydro-2H-benzo[g]chromene-5,10-dione] | 5600 nM | 4300 nM | 5800 nM | 4100 nM | > 66.7 µM | 2.1 µM (≈ 0.643 µg/mL) | 8600 nM |
| COc1cc(O)c2c(c1)C(=O)C1=C(C2=O)[C@@H](O)[C@@H](OC(C)=O)[C@@H](C)O1 [Compound 5, (2R,3R,4R)-4,6-dihydroxy-8-methoxy-2-methyl-5,10-dioxo-3,4,5,10-tetrahydro-2H-benzo[g]chromen-3-yl acetate] | 10 nM | 60 nM | 20 nM | 30 nM | 66.7 µM | 1 µM | 240 nM |
| COc1cc(O)c2c(c1)C(=O)C1=C(C2=O)[C@@H](OC(C)=O)[C@@H](O)[C@@H](C)O1 [Compound 1, (2R,3S,4R)-3,6-dihydroxy-8-methoxy-2-methyl-5,10-dioxo-3,4,5,10-tetrahydro-2H-benzo[g]chromen-4-yl acetate] | 10 nM | 60 nM | 20 nM | 40 nM | 33.3 µM | 1 µM | 220 nM |
| COc1cc(O)c2c(c1)C(=O)C1=C(C[C@@H](OC(C)=O)[C@@H](C)O1)C2=O [Compound 7, (2R,3R)-6-hydroxy-8-methoxy-2-methyl-5,10-dioxo-3,4,5,10-tetrahydro-2H-benzo[g]chromen-3-yl acetate] | 2500 nM | 900 nM | 2400 nM | 5700 nM | 33.3 µM | 4.2 µM | 3600 nM |
